From the NIST ThermoML archive (doi:10.1021/je049895b)
± gives the expanded uncertainty stated by the source.

Assay: xn = mol fraction of the nth substance listed
Settings: 101.33 kPa, Liquid; for viscosity: Capillary tube (Ostwald / Ubbelohde) method

CCOC(=O)OCC [diethyl carbonate] + CC1CCCCC1
Settings	speed of sound, 293.15 K [m/s]	speed of sound, 298.15 K [m/s]	speed of sound, 303.15 K [m/s]	speed of sound, 308.15 K [m/s]	speed of sound, 313.15 K [m/s]	viscosity, 293.15 K [mPa·s]	viscosity, 298.15 K [mPa·s]	viscosity, 303.15 K [mPa·s]	viscosity, 308.15 K [mPa·s]	viscosity, 313.15 K [mPa·s]
x1 = 0.0473	1229 ± 2	1207 ± 2	1185 ± 2	1164 ± 2	1142 ± 2	0.709 ± 0.021	0.662 ± 0.021	0.621 ± 0.021	0.583 ± 0.021	0.548 ± 0.02
x1 = 0.0978	1222 ± 2	1201 ± 2	1179 ± 2	1157 ± 2	1136 ± 2	0.692 ± 0.021	0.647 ± 0.021	0.607 ± 0.021	0.57 ± 0.02	0.537 ± 0.02
x1 = 0.1985	1211 ± 2	1189 ± 2	1168 ± 2	1146 ± 2	1125 ± 2	0.678 ± 0.021	0.633 ± 0.021	0.593 ± 0.021	0.558 ± 0.02	0.525 ± 0.02
x1 = 0.2968	1203 ± 2	1181 ± 2	1160 ± 2	1138 ± 2	1117 ± 2	0.67 ± 0.021	0.627 ± 0.021	0.588 ± 0.02	0.553 ± 0.02	0.521 ± 0.02
x1 = 0.3924	1196 ± 2	1175 ± 2	1154 ± 2	1132 ± 2	1111 ± 2	0.672 ± 0.021	0.628 ± 0.021	0.589 ± 0.02	0.554 ± 0.02	0.522 ± 0.02
x1 = 0.4993	1192 ± 2	1171 ± 2	1149 ± 2	1128 ± 2	1107 ± 2	0.68 ± 0.021	0.635 ± 0.021	0.596 ± 0.02	0.561 ± 0.02	0.529 ± 0.02
x1 = 0.5999	1189 ± 2	1168 ± 2	1147 ± 2	1126 ± 2	1105 ± 2	0.695 ± 0.021	0.649 ± 0.021	0.609 ± 0.02	0.572 ± 0.02	0.539 ± 0.02
x1 = 0.6985	1189 ± 2	1168 ± 2	1147 ± 2	1126 ± 2	1106 ± 2	0.709 ± 0.021	0.663 ± 0.021	0.622 ± 0.02	0.584 ± 0.02	0.55 ± 0.02
x1 = 0.7988	1191 ± 2	1170 ± 2	1149 ± 2	1128 ± 2	1108 ± 2	0.732 ± 0.021	0.684 ± 0.021	0.642 ± 0.02	0.603 ± 0.02	0.568 ± 0.02
x1 = 0.8996	1194 ± 2	1173 ± 2	1152 ± 2	1132 ± 2	1112 ± 2	0.762 ± 0.021	0.711 ± 0.021	0.666 ± 0.02	0.625 ± 0.02	0.588 ± 0.02
x1 = 0.9509	1196 ± 2	1175 ± 2	1155 ± 2	1134 ± 2	1114 ± 2	0.787 ± 0.021	0.735 ± 0.021	0.687 ± 0.021	0.645 ± 0.02	0.607 ± 0.02
x1 = 1	1198 ± 2	1177 ± 2	1157 ± 2	1136 ± 2	1116 ± 2	0.809 ± 0.021	0.75 ± 0.021	0.702 ± 0.021	0.658 ± 0.02	0.618 ± 0.02

C1CCCC1 [cyclopentane] + COC(=O)OC
Settings	mass density [kg/m3]	speed of sound [m/s]	viscosity [mPa·s]
293.15 K, x2 = 0	744.43 ± 0.51	1232 ± 2	0.438 ± 0.02
293.15 K, x2 = 0.0453	755.75 ± 0.5	1219 ± 2	0.429 ± 0.02
293.15 K, x2 = 0.0871	766.47 ± 0.5	1209 ± 2	0.419 ± 0.02
293.15 K, x2 = 0.1847	792.72 ± 0.5	1192 ± 2	0.417 ± 0.02
293.15 K, x2 = 0.2915	823.38 ± 0.5	1180 ± 2	0.421 ± 0.02
293.15 K, x2 = 0.3937	854.33 ± 0.51	1174 ± 2	0.432 ± 0.02
293.15 K, x2 = 0.4904	884.96 ± 0.52	1172 ± 2	0.449 ± 0.02
293.15 K, x2 = 0.5988	920.84 ± 0.51	1174 ± 2	0.472 ± 0.02
293.15 K, x2 = 0.6963	954.64 ± 0.51	1180 ± 2	0.497 ± 0.02
293.15 K, x2 = 0.8033	993.39 ± 0.52	1190 ± 2	0.531 ± 0.02
293.15 K, x2 = 0.9028	1031.4 ± 0.54	1204 ± 2	0.573 ± 0.021
293.15 K, x2 = 0.9532	1051.09 ± 0.55	1212 ± 2	0.601 ± 0.021
298.15 K, x2 = 0	739.47 ± 0.51	1206 ± 2	0.415 ± 0.02
298.15 K, x2 = 0.0453	750.69 ± 0.51	1193 ± 2	0.406 ± 0.02
298.15 K, x2 = 0.0871	761.31 ± 0.5	1184 ± 2	0.397 ± 0.02
298.15 K, x2 = 0.1847	787.29 ± 0.5	1168 ± 2	0.396 ± 0.02
298.15 K, x2 = 0.2915	817.76 ± 0.5	1156 ± 2	0.398 ± 0.02
298.15 K, x2 = 0.3937	848.47 ± 0.51	1150 ± 2	0.408 ± 0.02
298.15 K, x2 = 0.4904	878.98 ± 0.52	1148 ± 2	0.422 ± 0.02
298.15 K, x2 = 0.5988	914.7 ± 0.51	1151 ± 2	0.444 ± 0.02
298.15 K, x2 = 0.6963	948.41 ± 0.51	1157 ± 2	0.468 ± 0.02
298.15 K, x2 = 0.8033	987.01 ± 0.52	1168 ± 2	0.5 ± 0.02
298.15 K, x2 = 0.9028	1024.85 ± 0.53	1182 ± 2	0.538 ± 0.02
298.15 K, x2 = 0.9532	1044.57 ± 0.55	1190 ± 2	0.565 ± 0.021
303.15 K, x2 = 0	734.47 ± 0.51	1180 ± 2	0.394 ± 0.02
303.15 K, x2 = 0.0453	745.58 ± 0.51	1168 ± 2	0.385 ± 0.02
303.15 K, x2 = 0.0871	756.09 ± 0.51	1158 ± 2	0.377 ± 0.02
303.15 K, x2 = 0.1847	781.98 ± 0.5	1143 ± 2	0.374 ± 0.02
303.15 K, x2 = 0.2915	812.07 ± 0.5	1131 ± 2	0.377 ± 0.02
303.15 K, x2 = 0.3937	842.65 ± 0.51	1125 ± 2	0.386 ± 0.02
303.15 K, x2 = 0.4904	872.96 ± 0.52	1124 ± 2	0.4 ± 0.02
303.15 K, x2 = 0.5988	908.54 ± 0.51	1127 ± 2	0.419 ± 0.02
303.15 K, x2 = 0.6963	942.13 ± 0.51	1134 ± 2	0.441 ± 0.02
303.15 K, x2 = 0.8033	980.64 ± 0.51	1145 ± 2	0.472 ± 0.02
303.15 K, x2 = 0.9028	1018.17 ± 0.53	1160 ± 2	0.507 ± 0.02
303.15 K, x2 = 0.9532	1038.01 ± 0.54	1168 ± 2	0.528 ± 0.02
308.15 K, x2 = 0	729.42 ± 0.51	1154 ± 2	0.374 ± 0.02
308.15 K, x2 = 0.0453	740.41 ± 0.51	1142 ± 2	0.366 ± 0.02
308.15 K, x2 = 0.0871	750.83 ± 0.51	1133 ± 2	0.358 ± 0.02
308.15 K, x2 = 0.1847	776.38 ± 0.5	1118 ± 2	0.355 ± 0.02
308.15 K, x2 = 0.2915	806.36 ± 0.5	1107 ± 2	0.357 ± 0.02
308.15 K, x2 = 0.3937	836.73 ± 0.51	1102 ± 2	0.366 ± 0.02
308.15 K, x2 = 0.4904	866.91 ± 0.52	1101 ± 2	0.379 ± 0.02
308.15 K, x2 = 0.5988	902.34 ± 0.51	1105 ± 2	0.397 ± 0.02
308.15 K, x2 = 0.6963	935.82 ± 0.51	1111 ± 2	0.418 ± 0.02
308.15 K, x2 = 0.8033	974.2 ± 0.51	1123 ± 2	0.446 ± 0.02
308.15 K, x2 = 0.9028	1011.88 ± 0.52	1138 ± 2	0.478 ± 0.02
308.15 K, x2 = 0.9532	1031.41 ± 0.54	1146 ± 2	0.501 ± 0.02
313.15 K, x2 = 0	724.32 ± 0.51	1129 ± 2	0.355 ± 0.02
313.15 K, x2 = 0.0453	735.2 ± 0.51	1117 ± 2	0.348 ± 0.02
313.15 K, x2 = 0.0871	745.51 ± 0.51	1108 ± 2	0.341 ± 0.02
313.15 K, x2 = 0.1847	770.82 ± 0.5	1093 ± 2	0.338 ± 0.02
313.15 K, x2 = 0.2915	800.54 ± 0.5	1083 ± 2	0.338 ± 0.02
313.15 K, x2 = 0.3937	830.73 ± 0.51	1078 ± 2	0.346 ± 0.02
313.15 K, x2 = 0.4904	860.7 ± 0.51	1078 ± 2	0.358 ± 0.02
313.15 K, x2 = 0.5988	896.1 ± 0.51	1082 ± 2	0.377 ± 0.02
313.15 K, x2 = 0.6963	929.45 ± 0.51	1089 ± 2	0.397 ± 0.02
313.15 K, x2 = 0.8033	967.7 ± 0.51	1101 ± 2	0.424 ± 0.02
313.15 K, x2 = 0.9028	1005.28 ± 0.52	1116 ± 2	0.454 ± 0.02
313.15 K, x2 = 0.9532	1024.79 ± 0.53	1125 ± 2	0.472 ± 0.02
